Measurements: BigSolDB 2.1

N[C@H](Cc1c[nH]c2ccccc12)C(=O)O
solubility (mole fraction) (in DMSO, 293.15 K): 0.00359 | solubility (mole fraction) (in DMSO, 298.15 K): 0.00381 | solubility (mole fraction) (in DMSO, 303.15 K): 0.00464 | solubility (mole fraction) (in DMSO, 308.15 K): 0.00551 | solubility (mole fraction) (in DMSO, 313.15 K): 0.00596 | solubility (mole fraction) (in DMSO, 318.15 K): 0.00705 | solubility (mole fraction) (in DMSO, 323.15 K): 0.00778 | solubility (mole fraction) (in DMSO, 328.15 K): 0.00911 | solubility (mole fraction) (in acetonitrile, 283.15 K): 5.75e-05 | solubility (mole fraction) (in acetonitrile, 288.15 K): 6.84e-05 | solubility (mole fraction) (in acetonitrile, 293.15 K): 8.14e-05 | solubility (mole fraction) (in acetonitrile, 298.15 K): 0.000107 | solubility (mole fraction) (in acetonitrile, 303.15 K): 0.000128 | solubility (mole fraction) (in acetonitrile, 308.15 K): 0.00015 | solubility (mole fraction) (in acetonitrile, 313.15 K): 0.000206 | solubility (mole fraction) (in acetonitrile, 318.15 K): 0.000241 | solubility (mole fraction) (in acetonitrile, 323.15 K): 0.000307 | solubility (mole fraction) (in acetonitrile, 328.15 K): 0.000372 | solubility (mole fraction) (in ethyl acetate, 283.15 K): 0.000238 | solubility (mole fraction) (in ethyl acetate, 288.15 K): 0.000302 | solubility (mole fraction) (in ethyl acetate, 293.15 K): 0.000376 | solubility (mole fraction) (in ethyl acetate, 298.15 K): 0.000476 | solubility (mole fraction) (in ethyl acetate, 303.15 K): 0.000541 | solubility (mole fraction) (in ethyl acetate, 308.15 K): 0.000699 | solubility (mole fraction) (in ethyl acetate, 313.15 K): 0.000837 | solubility (mole fraction) (in ethyl acetate, 318.15 K): 0.00115 | solubility (mole fraction) (in ethyl acetate, 323.15 K): 0.00141 | solubility (mole fraction) (in ethyl acetate, 328.15 K): 0.0018 | solubility (mole fraction) (in ethylene glycol, 283.15 K): 0.00148 | solubility (mole fraction) (in ethylene glycol, 288.15 K): 0.00167 | solubility (mole fraction) (in ethylene glycol, 293.15 K): 0.00246 | solubility (mole fraction) (in ethylene glycol, 298.15 K): 0.00318 | solubility (mole fraction) (in ethylene glycol, 303.15 K): 0.00437 | solubility (mole fraction) (in ethylene glycol, 308.15 K): 0.00547 | solubility (mole fraction) (in ethylene glycol, 313.15 K): 0.00804 | solubility (mole fraction) (in ethylene glycol, 318.15 K): 0.00999 | solubility (mole fraction) (in ethylene glycol, 323.15 K): 0.0125 | solubility (mole fraction) (in ethylene glycol, 328.15 K): 0.0161 | solubility (mole fraction) (in n-butanol, 283.15 K): 1.97e-05 | solubility (mole fraction) (in n-butanol, 288.15 K): 2.21e-05 | solubility (mole fraction) (in n-butanol, 293.15 K): 2.99e-05 | solubility (mole fraction) (in n-butanol, 298.15 K): 3.52e-05 | solubility (mole fraction) (in n-butanol, 303.15 K): 4.81e-05 | solubility (mole fraction) (in n-butanol, 308.15 K): 5.68e-05 | solubility (mole fraction) (in n-butanol, 313.15 K): 7.9e-05 | solubility (mole fraction) (in n-butanol, 318.15 K): 9.26e-05 | solubility (mole fraction) (in n-butanol, 323.15 K): 0.00012 | solubility (mole fraction) (in n-butanol, 328.15 K): 0.000137 | solubility (mole fraction) (in n-octanol, 283.15 K): 1.36e-05 | solubility (mole fraction) (in n-octanol, 288.15 K): 1.53e-05 | solubility (mole fraction) (in n-octanol, 293.15 K): 1.88e-05 | solubility (mole fraction) (in n-octanol, 298.15 K): 2.49e-05 | solubility (mole fraction) (in n-octanol, 303.15 K): 2.8e-05 | solubility (mole fraction) (in n-octanol, 308.15 K): 3.61e-05 | solubility (mole fraction) (in n-octanol, 313.15 K): 4.02e-05 | solubility (mole fraction) (in n-octanol, 318.15 K): 4.83e-05 | solubility (mole fraction) (in n-octanol, 323.15 K): 5.87e-05 | solubility (mole fraction) (in n-octanol, 328.15 K): 6.53e-05 | solubility (mole fraction) (in n-propanol, 283.15 K): 4.51e-05 | solubility (mole fraction) (in n-propanol, 288.15 K): 6.23e-05 | solubility (mole fraction) (in n-propanol, 293.15 K): 7.27e-05 | solubility (mole fraction) (in n-propanol, 298.15 K): 8.69e-05 | solubility (mole fraction) (in n-propanol, 303.15 K): 0.000111 | solubility (mole fraction) (in n-propanol, 308.15 K): 0.000127 | solubility (mole fraction) (in n-propanol, 313.15 K): 0.000157 | solubility (mole fraction) (in n-propanol, 318.15 K): 0.000177 | solubility (mole fraction) (in n-propanol, 323.15 K): 0.000219 | solubility (mole fraction) (in n-propanol, 328.15 K): 0.000244
